Experimental data published in article PMC9144807, “Fluorine-18 Labeled Urea-Based Ligands Targeting Prostate-Specific Membrane Antigen (PSMA) with Increased Tumor and Decreased Renal Uptake” (Pharmaceuticals, 2022).
Where two headings read alike, the source gives them in different places.

Assays:
PSMA [1] = molecular target: T1, PSMA (Homo sapiens, UniProt Q04609); test: In vitro saturation binding assay with PC3(+) tumor membrane preparations
T1 construct: expressed in transfected cells; host or cells: PC3(+) (PC3 human prostate cancer cells transfected with human PSMA), grown as xenograft tumors in athymic mice; tumor membrane preparations
Procedure: (§1) PC3(−) (wildtype human prostate cancer cell line, PSMA negative) and PC3(+) (transfected with human PSMA) were provided by Dr. Hisataka Kobayashi. Cell lines were grown at 37 °C in 5% CO2 in RPMI-1640 supplemented with 10% FBS, 2 mM L-glutamine and Pen/Strep/Amphotericin B. PC3(+) and PC3(−) cell suspensions [2 × 10^6 cells; PBS:Matrigel (70:30)] from in vitro cell culture were subcutaneously implanted (right shoulder) into athymic mice (Athymic NCr- nu/nu, Charles River Laboratory, 4 weeks old) for use as positive and negative controls, respectively, for in vitro or in vivo studies. When tumors reached the appropriate size (>100 mg) the xenograft mice were used for in vivo biodistributions and imaging studies or the tumors were excised and further processed to obtain membrane preparations for in vitro assays as described previously.
In vitro saturation studies were performed to determine binding affinities (Kd) and PSMA expression levels (Bmax) using tumor membrane preparations from PC3(−) and PC3(+) PSMA xenografts (human prostate cancer cell line transfected with human PSMA; PC3(+)). […] Filter papers were collected, and the radioactive content was quantified by gamma counting (PerkinElmer 2480 Wizard3). […] Aliquots of each membrane preparation were taken for the determination of the protein concentration (Bradford method).

PSMA [2] = molecular target: T1, PSMA; test: In vitro competition binding assay with [18F]DCFPyL as radioligand, PC3(+) tumor membrane preparations
PC3(+) xenografts [3] = test: In vivo biodistribution in PC3(+) xenograft mice; design: key to salivary gland T:M / Femur T:M / Blood T:M / Kidney T:M / Liver T:M: T:M = (%ID/g in tissue) / (%ID/g in muscle)
Procedure: as §1
(§2) Tumor-bearing mice (tumor weights: 0.1–0.8 g) were injected while awake via the tail vein with each of the tracers [0.74–3.7 MBq (20 to 100 µCi), 10 to 80 pmol] and euthanized (via CO2 inhalation) at selected times. […] Blood samples and tissues were excised from each animal, weighed, and radioactivity content was determined (Perkin Elmer 2480 Wizard3). Radioactivity content in the blood and each tissue was expressed as % injected dose per gram of tissue [%ID/g; (Formula (1))] and then normalized for body weight to a 20 g mouse (Formula (2)) from which Tissue:Muscle ratios [T:M; (Formula (3))] were determined as follows:(1) %ID/g =[counts per minute cpmtissue / tissue weight g]×100/cpmtotal injected dose
(§3) %ID/g (normalized to a 20 g mouse) = (%ID/g) × (body weight/20 g)(2)
(§4) (3) T:M=%ID/gtissue/%ID/gmuscle

PC3(−) xenografts = test: In vivo biodistribution in PC3(−) xenograft mice (negative control); conditions: 60 min; for PC3(−) Tumor T:M: mean ± SE, n = 8–10
Procedure: as §1, §2, §3, §4

[4] = Fraction of intact tracer (parent) in blood and kidney by TLC; format: in vivo, mice; conditions: for %Parent compound in blood (TLC analysis): 60 min, mean ± SD, n = 2–5; for tissue uptake at 1 h: 60 min post-injection; for tissue uptake at 2 h: 120 min post-injection
Source text: In some cases, additional blood samples and/or tissue samples after gamma counting were taken for determining the fraction of intact radiolabeled tracer (parent) using thin-layer chromatography (TLC). For these TLC determinations: tissues were placed in equal volumes of acetonitrile and homogenized, or serum was obtained from the blood samples and mixed with an equal volume of acetonitrile. Following centrifugation of the samples, supernatants were collected and the radioactive content of the supernatants and pellets were determined. The supernatants were then applied to thin-layer chromatography (TLC) plates. The TLC plates were developed [solvent system: ethyl acetate (80%), methanol (10%) and acetic acid (10%)], and exposed on a phosphorimaging plate which was scanned the next day.

PC3(+) xenografts [5] = test: Blocking biodistribution study in PC3(+) xenografts, coinjection of non-radioactive DCFPyL; format: in vivo, mice; conditions: 60 min
Procedure: as §2, §3, §4

[6] = test system: PC3(+) tumor xenograft mice; test: Small animal PET imaging with ROI analysis, PC3(+) tumor xenograft mice; format: in vivo; conditions: 60 min post-injection
Procedure: Tumor-bearing mice were anesthetized with isoflurane/O2 (1.5–3% v/v) and imaged at various times after intravenous injection of each tracer [2.6 to 3.7 MBq (70 to 100 µCi)]. Whole body static PET images were obtained at 2 bed positions (FOV = 2.0 cm, total imaging time: 10 min) using a BioPET scanner (Bioscan Inc., Washington, DC, USA). The images were reconstructed by a 3-dimensional ordered-subsets expectation maximum (3D-OSEM).

[7] = 15 min post-injection, mean ± SE
[8] = 30 min post-injection, mean ± SE
[9] = 60 min post-injection, mean ± SE
[10] = 120 min post-injection, mean ± SE
[11] = mouse, blood, intravenous, mean ± SE, read-out: Blood uptake, parent (corrected for metabolites)
[12] = mouse, kidney, intravenous, mean ± SE, read-out: Kidney uptake, parent (corrected for metabolites)

T1 sequence (Q04609 whole entry): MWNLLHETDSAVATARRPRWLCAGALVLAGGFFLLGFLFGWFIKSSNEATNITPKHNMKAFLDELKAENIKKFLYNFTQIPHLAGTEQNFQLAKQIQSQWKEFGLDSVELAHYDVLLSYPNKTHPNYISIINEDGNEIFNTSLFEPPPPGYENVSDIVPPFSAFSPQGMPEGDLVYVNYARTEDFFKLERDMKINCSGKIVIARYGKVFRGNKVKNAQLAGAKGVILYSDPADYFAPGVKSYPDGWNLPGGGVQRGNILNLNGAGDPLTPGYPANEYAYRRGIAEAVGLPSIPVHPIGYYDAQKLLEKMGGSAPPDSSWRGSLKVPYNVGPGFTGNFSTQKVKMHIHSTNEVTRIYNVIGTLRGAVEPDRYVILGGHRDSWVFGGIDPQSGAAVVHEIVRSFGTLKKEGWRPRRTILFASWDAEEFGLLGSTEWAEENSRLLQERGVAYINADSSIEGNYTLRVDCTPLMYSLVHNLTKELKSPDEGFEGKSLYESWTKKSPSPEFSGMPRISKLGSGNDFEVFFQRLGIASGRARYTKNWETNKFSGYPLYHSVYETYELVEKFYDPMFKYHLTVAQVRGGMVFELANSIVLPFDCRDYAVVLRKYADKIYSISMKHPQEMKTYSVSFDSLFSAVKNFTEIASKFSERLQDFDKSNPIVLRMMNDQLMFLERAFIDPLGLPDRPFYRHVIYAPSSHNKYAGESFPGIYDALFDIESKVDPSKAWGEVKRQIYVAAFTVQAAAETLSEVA

SMILES: O=C(O)CC[C@H](NC(=O)N[C@@H](CCCCNC(=O)CO/N=C\c1ccc([18F])cc1)C(=O)O)C(=O)O [[^18F]1a, reference compound]
- Kd (PSMA [1]; saturation assays, mean (SE), n = 3–5): 0.238 nM
- Ki (PSMA [2]): 0.1 nM
- decrease in Ki compared to Ki of DCFPyL (PSMA [2]; p = 0.006): ~ 4 fold
- Blood T:M (PC3(+) xenografts [3]; 60 min, mean ± SE, n = 8–10): 2.39 ± 0.14
- Femur T:M (PC3(+) xenografts [3]; 60 min, mean ± SE, n = 8–10): 0.92 ± 0.09
- Kidney T:M (PC3(+) xenografts [3]; 60 min, mean ± SE, n = 8–10): 507.8 ± 44.0
- Liver T:M (PC3(+) xenografts [3]; 60 min, mean ± SE, n = 8–10): 35.7 ± 3.1
- PC3(+) Tumor T:M (PC3(+) xenografts [3]; 60 min, mean ± SE, n = 8–10): 103.0 ± 10.9
- PC3(−) Tumor T:M (PC3(−) xenografts): 1.07 ± 0.08
- %Parent compound in blood (TLC analysis) [4]: 50.2 ± 1.4%

SMILES: O=C(O)CCC(NC(=O)NC(CCCCNC(=O)c1ccc([18F])nc1)C(=O)O)C(=O)O (stereo not shown) [[^18F]DCFPyL, 2-(3-(1-carboxy-5-[(6-[^18F]fluoropyridine-3-carbonyl)-amino]-pentyl)-ureido)-pentanedioic acid, reference compound]
- Bmax (PSMA expression level) (PSMA [1]; n = 5): 13.95 ± 1.60 fmol/µg of protein
- PC3(+) tumor uptake (PC3(+) xenografts [3]; 15 min): 18.6 %ID/g
- salivary gland T:M (PC3(+) xenografts [3]; 15 min): 2.7
- Blood uptake, total radioactivity (PC3(+) xenografts [3]; [7]): 2.66 ± 0.12 %ID/g
- Kidney uptake, total radioactivity (PC3(+) xenografts [3]; [7]): 132.9 ± 6.6 %ID/g
- Blood uptake, total radioactivity (PC3(+) xenografts [3]; [8]): 1.03 ± 0.05 %ID/g
- Kidney uptake, total radioactivity (PC3(+) xenografts [3]; [8]): 126.9 ± 5.6 %ID/g
- PC3(+) tumor uptake (PC3(+) xenografts [3]; 60 min): 25.6 %ID/g
- Radioactivity in the blood (PC3(+) xenografts [3]; 60 min (Figure 5A)): 0.519 %ID/g
- Blood T:M (PC3(+) xenografts [3]; 60 min, mean ± SE, n = 8–10): 2.29 ± 0.15
- Femur T:M (PC3(+) xenografts [3]; 60 min, mean ± SE, n = 8–10): 0.90 ± 0.09
- Kidney T:M (PC3(+) xenografts [3]; 60 min, mean ± SE, n = 8–10): 695.1 ± 76.0
- Liver T:M (PC3(+) xenografts [3]; 60 min, mean ± SE, n = 8–10): 9.88 ± 7.4
- PC3(+) Tumor T:M (PC3(+) xenografts [3]; 60 min, mean ± SE, n = 8–10): 124
- Blood uptake, total radioactivity (PC3(+) xenografts [3]; [9]): 0.52 ± 0.06 %ID/g
- Kidney uptake, total radioactivity (PC3(+) xenografts [3]; [9]): 147.7 ± 11.6 %ID/g
- PC3(+) tumor uptake (PC3(+) xenografts [3]; 120 min): 20.8 %ID/g
- salivary gland T:M (PC3(+) xenografts [3]; 120 min): 2.0
- Blood uptake, total radioactivity (PC3(+) xenografts [3]; [10]): 0.13 ± 0.01 %ID/g
- Kidney uptake, total radioactivity (PC3(+) xenografts [3]; [10]): 50.2 ± 3.6 %ID/g
- Femur uptake (PC3(+) xenografts [3]; all times 15 to 120 min): < 1 %ID/g
- Femur T:M (PC3(+) xenografts [3]; all times except 120 min): < 1.8
- salivary gland radioactivity cleared (PC3(+) xenografts [3]; at 120 min): 92%
- decrease of kidney uptake from 15 to 120 min (PC3(+) xenografts [3]; mouse, in vivo): 65%
- decrease of salivary gland T:M from 15 to 120 min (PC3(+) xenografts [3]; mouse, in vivo): 34%
- increase in tumor T:M from 15 to 120 min (PC3(+) xenografts [3]; mouse, in vivo): 11 fold
- PC3(−) tumor uptake (PC3(−) xenografts): 0.3 %ID/g
- PC3(−) tumor uptake as fraction of uptake in PC3(+) tumors (PC3(−) xenografts): < 2%
- PC3(−) Tumor T:M (PC3(−) xenografts): 1.50 ± 0.17
- increase of liver T:M in blocked group compared to tracer-only group (PC3(+) xenografts [5]): 2.7 fold
- PC3(+) tumor T:M of the blocked group (PC3(+) xenografts [5]; coinjection of DCFPyL 1000×): 50
- decrease of PC3(+) tumor T:M in blocked group compared to non-blocked group (PC3(+) xenografts [5]; coinjection of DCFPyL 1000×): 60%
- decrease of kidney T:M in blocked group (PC3(+) xenografts [5]; coinjection of DCFPyL 1000×): 96%
- decrease of spleen T:M in blocked group (PC3(+) xenografts [5]; coinjection of DCFPyL 1000×): 81%
- liver T:M of the blocked group (PC3(+) xenografts [5]; coinjection of DCFPyL 1000×): 27
- reduction in blood and most tissue uptakes (%ID/g) compared to tracer-only group (PC3(+) xenografts [5]; coinjection of DCFPyL 1000×): > 50%
- PC3(+) tumor T:M of the tracer-only group of the blocking study (PC3(+) xenografts [5]; no blocking dose): 141
- Blood uptake, parent (corrected for metabolites) [4, 7]: 1.06 ± 0.05 %ID/g
- Kidney uptake, parent (corrected for metabolites) [4, 8]: 20.18 ± 0.72 %ID/g
- %Parent compound in blood (TLC analysis) [4]: 49.9 ± 10.7%
- tissue uptake at 0.5 h ([4]; mouse, blood, intravenous, 30 min post-injection, mean ± SE, read-out: Blood uptake, parent (corrected for metabolites)): 0.4 ± 0.02 %ID/g
- tissue uptake at 1 h [4, 11]: 0.26 ± 0.02 %ID/g
- tissue uptake at 2 h [4, 11]: 0.045 ± 0.003 %ID/g
- tissue uptake at 0.25 h ([4]; mouse, kidney, intravenous, 15 min post-injection, mean ± SE, read-out: Kidney uptake, parent (corrected for metabolites)): 17.1 ± 0.84 %ID/g
- tissue uptake at 1 h [4, 12]: 17.6 ± 1.48 %ID/g
- tissue uptake at 2 h [4, 12]: 3.41 ± 0.46 %ID/g
- % of parent in blood ([4]; nude, mouse, in vivo): 50-40
- % of parent in kidney ([4]; nude, mouse, in vivo): 16-7
- PC3(+) tumor uptake from ROI analysis of PET images [6]: 19 %ID/g
- kidney uptake from ROI analysis of PET images [6]: 187 %ID/g
- liver uptake from ROI analysis of PET images [6]: 3 %ID/g
